# How the values were obtained:
# [1] = target: T1, LspPae (lipoprotein signal peptidase II from Pseudomonas aeruginosa) (Pseudomonas aeruginosa, UniProt Q9HVM5); assay: Coupled gel-shift peptidase assay with proICP substrate, LspPae WT; assay type: biochemical
# T1 construct: made in house
# T1 sequence (Q9HVM5 1-169): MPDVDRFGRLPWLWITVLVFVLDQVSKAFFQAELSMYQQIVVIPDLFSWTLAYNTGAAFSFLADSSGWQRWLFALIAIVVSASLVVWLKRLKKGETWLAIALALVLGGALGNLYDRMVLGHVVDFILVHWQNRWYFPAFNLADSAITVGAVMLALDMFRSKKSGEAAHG
# Description: (§1) The peptidase activity of LspMrs and P. aeruginosa LspA (LspPae) was quantified in a coupled gel-shift assay developed previously for LspPae[5]. The P. aeruginosa lipoprotein pre-proICP and the first two enzymes in the bacterial lipoprotein processing pathway Lgt and LspA were expressed and purified, as described. For FRET assays LspMrs was expressed and purified as described above and LspPae was expressed and purified as described in a published protocol.
# Gel-shift activity assay. For time course assays, reactions were set up containing 12 µM pre-proICP, 250 µM DOPG (Avanti Polar Lipids, Inc.) and 1.2 µM Lgt in Buffer E (50 mM Tris/HCl pH 7.5, 150 mM NaCl, 1 mM DTT, 0.02%(w/v) LMNG). The assay mixtures were incubated at 37 °C and 200 rpm for 60 min to allow Lgt catalysed conversion of pre-proICP to the LspA substrate proICP. The LspA reaction was initiated by adding 0.5 µM LspA directly to the assay mixture. At timed intervals, 20 µL samples were removed and the reaction was stopped by adding 10 µL of 4x SDS loading buffer (62.5 mM Tris/HCl pH 6.8, 2.5%(w/v) SDS, 0.002%(w/v) bromophenol blue, 0.5 M β-mercaptoethanol, 10%(v/v) glycerol). To compare the activity of wild-type and mutant LspMrs, assays were allowed to proceed for 30 min before being stopped with SDS loading buffer. […] The reactions were initiated by adding LspA and allowed to proceed for 30 min. After the reaction was stopped with SDS buffer, 10 μL aliquots were loaded on precast Mini-PROTEAN® TGX^TM gels (Bio-Rad) and run with Tris/glycine buffer (25 mM Tris/HCl pH 8.0, 250 mM glycine, 0.1%(w/v) SDS). The gels were stained using InstantBlue™ (Expedeon) Coomassie based stain and were imaged using a Bio-Rad Gel-Doc imager (Supplementary Fig. 4). Band intensities of ICP were quantified using Image Lab. Dose-response plots to determine IC50 values were generated using Prism® 5 software from GraphPad.
# LspMrs G54A = target: T2, LspMrs G54A (Staphylococcus aureus, UniProt Q6GHN9, G54A); assay: Gel-shift peptidase assay, LspMrs G54A mutant; assay type: biochemical, methicillin-resistant Staphylococcus aureus
# T2 construct: MGSS-hexahistidine-SSGR-TEV site (ENLYFQ) (N, cleaved yes); made in house; host or cells: E. coli C43 (DE3)
# Procedure: LspA mutant genes (N52A, N52Q, G54A, G54P, R110A, R110K, D118N, N133A, N133Q and D136N) were obtained by site-directed mutagenesis of the wild-type lspA construct in pETDuet. Mutagenesis was performed using the Q5® Site-Directed Mutagenesis Kit (New England Biolabs) and specific primers are listed in Supplementary Table 5. The correct mutations were confirmed by sequencing (Eurofins Genomics). Expression and purification of all LspMrs wild-type and mutants for enzyme assays were performed as described above with the following modifications: TALON® Metal Affinity Resin (Clontech) was used for IMAC purification and the detergent DDM was used for membrane solubilisation and protein purification.
# as §1
# Gel-shift activity assay. […] Band intensities of ICP were quantified using Image Lab. […]
Structure (SMILES),IC50 [1] [nM],"remaining activity at 1000 µM ([1]; Log[Globomycin](M) -3, read-out: Normalized activity) [%]","remaining activity at 100 µM ([1]; Log[Globomycin](M) -4, read-out: Normalized activity) [%]",IC50 (LspMrs G54A) [nM],"remaining activity at 50 µM ([1]; read-out: Normalized activity, Log[Myxovirescin](M) -4.30103) [%]"
CCCCCC[C@H]1OC(=O)CNC(=O)[C@H]([C@H](C)O)NC(=O)[C@H](CO)NC(=O)[C@H]([C@H](C)CC)NC(=O)[C@H](CC(C)C)N(C)C(=O)[C@@H]1C [globomycin],640 ± 160,94.2,94,1780 ± 250,
"CCCC1OC(=O)C(C)CC(C)CCCCC(=O)CCCC(CC)C=CC=C(COC)CCC(O)C(O)CC(O)CNC1=O (stereo not shown) [myxovirescin, myxovirescin A1]",1090 ± 340,,,570 ± 10,95.7

# From paper PMC6952399, “Structures of lipoprotein signal peptidase II from Staphylococcus aureus complexed with antibiotics globomycin and myxovirescin” (Nature Communications, 2020)
